Source: US20110112195A1 (priority 2004, published 2011)
In brackets after ≈: the same amount, converted by molar mass. Like-named read-outs stand apart in the source and are kept apart here.

Tests used:
[1] = system: SARS-CoV; conditions: cited from earlier work
[2] = system: Adenovirus; format: cell-based
[3] = system: vaccinia virus (WR); format: cell-based
[4] = system: adenovirus type 5 expressing EGFP; format: cell-based
[5] = target: H1L phosphatase (GST-H1L fusion protein) (Vaccinia virus, UniProt P07239); assay: biochemical
[6] = system: West Nile Virus; format: cell-based
[7] = system: Ebola; format: cell-based
[8] = system: SARS-CoV; format: cell-based
[9] = system: SARS-CoV; assay: microbe, parasite or virus in culture; format: cell-based
[10] = system: Vero cells
[11] = in vitro; conditions: African green monkey
[12] = system: vaccinia virus (WR); format: cell-based; remark: listed apart in the source

NC(=O)c1ncn([C@@H]2O[C@H](CO)[C@@H](O)[C@H]2O)n1 [ribavarin]
effect against SARS-CoV replication [1]: little effect

Cc1c(O)cccc1C(=O)N[C@@H](CSc1ccccc1)[C@H](O)CN1C[C@H]2CCCC[C@H]2C[C@H]1C(=O)NC(C)(C)C [nelfinavir]
inhibition effect on SARS-CoV replication (logs) [1]: two logs or less

O=C(O)C1=CC(=C(c2ccc(O)c(C(=O)O)c2)c2ccc(O)c(C(=O)O)c2)C=CC1=O [ATA, aurintricarboxylic acid]
effect on Adenovirus [2]: no effect
plaque count (peak viral load) [3]: 616 pfu/mL
viral count in treated sample as share of untreated control [3]: 0.00026%
inhibition of EGFP expression by adenovirus [4]: No significant inhibition
IC50 [5]: 16 µM
inhibition of West Nile Virus [6]: 10000 fold
effect on Ebola [7]: no effect
inhibition of virus RNA replication [8]: more than 1,000 fold
potency of ATA relative to interferon α as anti-SARS-CoV agent [8]: about 10 times
potency of ATA relative to interferon β as anti-SARS-CoV agent [8]: ~100 times
inhibition of virus replication compared to untreated controls [9]: ≤ 1000 fold
viral replication level lower than control [9]: 10 times
EC50 ([9]; Severe acute respiratory syndrome coronavirus, Vero): 0.2 mg/mL (≈ 0.474 mM)
toxicity associated with treatment [10]: little toxicity
CC50 [11]: 37.5 mg/mL (≈ 88.8 mM)
lowest drug concentration at which block in vaccinia replication was evident [12]: 25 µg/mL

IFNα
inhibition effect with pre-treatment compared with samples without pre-treatment [8]: about the same
inhibition of virus RNA replication [8]: 100 fold
EC50 [9]: 500 IU/ml
CC50 [10]: 15000 IU/ml

CC1(C)[C@@H](O[C@H]2O[C@H](C(=O)O)[C@@H](O)[C@H](O)[C@H]2O[C@@H]2O[C@H](C(=O)O)[C@@H](O)[C@H](O)[C@H]2O)CC[C@]2(C)[C@H]3C(=O)C=C4[C@@H]5C[C@@](C)(C(=O)O)CC[C@]5(C)CC[C@@]4(C)[C@]3(C)CC[C@@H]12 [glycyrrhizin]
inhibition effect on SARS-CoV replication (logs) [1]: two logs or less
